Source: PubChem BioAssay (NCI)
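Each compound was tested at five concentrations against cells in 96-well plates for 48 hours. TGI marks complete inhibition of growth.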

Columns and labels:
Assay in all cases: growth of human tumour cells (NCI), 48 h
M14 melanoma = test system: M14 melanoma
UO-31 renal = test system: UO-31 renal
MOLT-4 leukemia = test system: MOLT-4 leukemia
DU-145 prostate = test system: DU-145 prostate
SK-MEL-2 melanoma = test system: SK-MEL-2 melanoma
NCI-H23 lung = test system: NCI-H23 lung
U251 CNS = test system: U251 CNS
786-0 renal = test system: 786-0 renal
MDA-MB-231 breast = test system: MDA-MB-231 breast
TK-10 renal = test system: TK-10 renal
EKVX NSCLC = test system: EKVX NSCLC
OVCAR-5 ovarian = test system: OVCAR-5 ovarian
NCI-H460 lung = test system: NCI-H460 lung
UACC-257 melanoma = test system: UACC-257 melanoma
MALME-3M melanoma = test system: MALME-3M melanoma
SK-MEL-28 melanoma = test system: SK-MEL-28 melanoma
HL-60(TB) leukemia = test system: HL-60(TB) leukemia
SR leukemia = test system: SR leukemia
NCI/ADR-RES ovarian = test system: NCI/ADR-RES ovarian
UACC-62 melanoma = test system: UACC-62 melanoma

SMILES | TGI (M14 melanoma) [µM] | TGI (UO-31 renal) [µM] | TGI (MOLT-4 leukemia) [µM] | TGI (DU-145 prostate) [µM] | TGI (SK-MEL-2 melanoma) [µM] | TGI (NCI-H23 lung) [µM] | TGI (U251 CNS) [µM] | TGI (786-0 renal) [µM] | TGI (MDA-MB-231 breast) [µM] | TGI (TK-10 renal) [µM] | TGI (EKVX NSCLC) [µM] | TGI (OVCAR-5 ovarian) [µM] | TGI (NCI-H460 lung) [µM] | TGI (UACC-257 melanoma) [µM] | TGI (MALME-3M melanoma) [µM] | TGI (SK-MEL-28 melanoma) [µM] | TGI (HL-60(TB) leukemia) [µM] | TGI (SR leukemia) [µM] | TGI (NCI/ADR-RES ovarian) [µM] | TGI (UACC-62 melanoma) [µM]
C#C[C@]1(O)CC[C@H]2[C@@H]3CCC4=C/C(=N\OCCN(CC)CC)CC[C@]4(C)[C@H]3CC[C@@]21C | 10.9 | 15.8 | 1.04 | 25.8 | 11.3 | 19.7 | > 38.3 | 9.42 | 35.2 | 23.5 | 26.6 | 32.2 | 21 | 16.9 | 10.2 | 25.8 | 3.42 | > 31.3 | 8.5 | 11.3
Cc1sc(N)c(S(=O)(=O)c2ccccc2)c1C | > 100 | > 100 | > 100 | > 100 | > 100 | > 100 | > 100 | > 100 | > 100 | > 100 | > 100 | > 100 | > 100 | > 100 | > 100 | > 100 | > 100 | > 100 | > 100 | > 100
O=S(=O)(O)c1cc(N=Nc2cc(S(=O)(=O)O)c3cccnc3c2O)ccc1/C=C/c1ccc(N=Nc2cc(S(=O)(=O)O)c3cccnc3c2O)cc1S(=O)(=O)O | > 100 | > 100 | 48.3 | > 100 | > 100 | > 100 | > 100 | > 100 | > 100 | > 100 | > 100 | > 100 | > 100 | > 100 | > 100 | > 100 | 56.5 | 51.1 | > 100 | > 100
